The source of these data is patent publication US20250170112A1, “ADENOSINE LIGANDS FOR THE TREATMENT OF NEUROLOGICAL DISORDERS” (Lucy Therapeutics, Inc., priority 2022, published 2025).

Test [1] addresses T1, human Adenosine A1 receptor (Homo sapiens, UniProt P30542).
T1 construct: host or cells: CHO-K1
T1 sequence (P30542 1-326): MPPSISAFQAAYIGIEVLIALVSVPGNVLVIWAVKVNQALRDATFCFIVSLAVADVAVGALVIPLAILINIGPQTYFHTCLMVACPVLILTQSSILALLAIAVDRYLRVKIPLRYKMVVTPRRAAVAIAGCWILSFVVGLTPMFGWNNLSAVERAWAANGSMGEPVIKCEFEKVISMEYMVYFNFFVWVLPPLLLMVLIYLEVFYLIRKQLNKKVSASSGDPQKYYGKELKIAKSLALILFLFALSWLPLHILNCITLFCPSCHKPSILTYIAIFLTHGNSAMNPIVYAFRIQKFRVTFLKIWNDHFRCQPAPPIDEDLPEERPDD
Put plainly: GTPγS scintillation proximity assay, agonist testing. Type of test: biochemical. Particulars: agonist activity; membrane extracts of CHO-K1 cells expressing recombinant human A1; read-out: A1AR EC50. A digest of the protocol: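 Agonist-stimulated [35S]GTPγS binding to membranes of CHO-K1 cells expressing recombinant human A1 receptor, in 20 mM HEPES pH 7.4, 100 mM NaCl, 10 μg/mL saponin, with receptor-optimized MgCl2 and GDP. GTPγ[35S] 0.1 nM final with WGA SPA beads; 1 h at room temperature, then scintillation counting.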

For the next test, the target named is T2, human A2B (Homo sapiens, UniProt P29275).
T2 construct: expressed in transfected cells; host or cells: HEK293
T2 sequence (P29275 1-332): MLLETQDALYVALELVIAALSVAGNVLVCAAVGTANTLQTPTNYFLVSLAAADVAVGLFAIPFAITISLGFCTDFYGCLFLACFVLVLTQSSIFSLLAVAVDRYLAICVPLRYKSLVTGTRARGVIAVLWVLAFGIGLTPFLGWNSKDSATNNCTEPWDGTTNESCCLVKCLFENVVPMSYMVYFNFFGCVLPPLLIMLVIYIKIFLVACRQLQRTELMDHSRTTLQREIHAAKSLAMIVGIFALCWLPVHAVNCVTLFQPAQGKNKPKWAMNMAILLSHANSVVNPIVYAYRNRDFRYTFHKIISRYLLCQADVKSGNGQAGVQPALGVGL
Briefly: cAMP HTRF assay for Gs coupled receptor, agonist test. Type of test: cell-based. Conditions: agonist activity; HEK293 cells expressing recombinant human A2B; read-out: A2BAR EC50. A digest of the protocol: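 Recombinant cells were incubated 30 min at room temperature with increasing agonist concentrations. Lysis buffer with cAMP-d2 and anti-cAMP cryptate was added, with 1 h at room temperature before the HTRF fluorescence ratio was read. Reference compounds were run in parallel.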

`N#Cc1c(N)nc(SC2CCOCC2)c(C#N)c1-c1ccc(OC2COC2)cc1` [Compound 31]: the values for the half-maximal effective concentration (EC50) (in test [1]; on human A2B) were 596 nM and greater than 10000 nM, respectively.

For the compound `N#Cc1c(SCc2cccnc2)nc(N2CC(F)C2)c(C#N)c1-c1ccc(OC(F)(F)CO)cc1` [Compound 255], the EC50 in test [1] is greater than 10000 nM; on human A2B, 435 nM.

Take `COc1nc(SCC2COC2)c(C#N)c(-c2ccc(OC3COC3)cc2)c1C#N` [Compound 294, 2-Methoxy-6-((oxetan-3-ylmethyl)thio)-4-(4-(oxetan-3-yloxy)phenyl)pyridine-3,5-dicarbonitrile]: the EC50 in test [1] was 25.2 nM; on human A2B it was greater than 10000 nM.

`N#Cc1cnc(SCC2CCCO2)c(C#N)c1-c1ccc(OCCO)cc1` (stereo not shown) [Compound 1]: the EC50 was greater than 10000 nM in test [1] and 5850 nM at human A2B.

`COCCOc1ccc(-c2c(C#N)c(SCc3ncccn3)nc(N3CC(F)C3)c2C#N)cc1` [Compound 251]: the EC50 (in test [1]; at human A2B) was greater than 10000 nM each time.

`N#Cc1c(SCc2cccnc2)nc(N2CC(F)(F)C2)c(C#N)c1-c1ccc(OC(F)(F)CO)cc1` [Compound 256]: the concentration giving a half-maximal response (EC50) (in test [1]; at human A2B) was greater than 10000 nM in each case.

With `N#Cc1c(SCc2cccnc2)nc(N2CCCC2)c(C#N)c1-c1ccc(OCCOC(F)F)cc1` [Compound 257], the EC50 (in test [1]; at human A2B) was greater than 10000 nM throughout.

On to `COCCOc1ccc(-c2c(C#N)c(SCc3cccnc3)nc(N3CCCC3)c2C#N)cc1` [Compound 107], for which the EC50 is 97 nM in test [1] and greater than 10000 nM on human A2B.

For the compound `COCCOc1ccc(-c2c(C#N)c(N)nc(Sc3cccnc3)c2C#N)cc1` [Compound 246], the EC50 (in test [1]; at human A2B) was greater than 10000 nM each time.

Turning to `N#Cc1c(N)nc(SCc2ncccn2)c(C#N)c1-c1ccc(OCCO)cc1` [Compound 176], the 50% effective concentration (EC50) in test [1] was 34 nM; on human A2B, 7.1 nM.

Turning to `N#Cc1c(N)nc(SCc2n[nH]c3ccccc23)c(C#N)c1-c1ccc(OCCO)cc1` [Compound 207], the EC50 came to 739 nM in test [1] and 108 nM on human A2B.

In the case of `N#Cc1c(N)nc(SCCC2CCO2)c(C#N)c1-c1ccc(OCCO)cc1` (stereo not shown) [Compound 10], the half-maximal effective concentration (EC50) in test [1] is greater than 10000 nM; at human A2B it was 3760 nM.

In the case of `COCCOc1ccc(-c2c(C#N)c(SCC3COC3)nc(N3CC(F)C3)c2C#N)cc1` [Compound 267], the EC50 in test [1] is 77 nM; on human A2B, greater than 10000 nM.

With `CC(O)COc1ccc(-c2c(C#N)c(SCc3cccnc3)nc(N3CCCC3)c2C#N)cc1` (stereo not shown) [Compound 52], the results for the concentration for a half-maximal effect (EC50) (in test [1]; at human A2B) were 94.2 nM and 5.3 nM, respectively.

In the case of `COCCOc1ccc(-c2c(C#N)c(SCc3ccccn3)nc(N3CC(F)C3)c2C#N)cc1` [Compound 250], the values for the concentration giving a half-maximal response (EC50) (in test [1]; on human A2B) were 33.2 nM and greater than 10000 nM, respectively.

Regarding `COCCOc1ccc(-c2c(C#N)c(SCc3cccnc3)nc(N(C)C)c2C#N)cc1` [Compound 286], the concentration for a half-maximal effect (EC50) (in test [1]; at human A2B) was greater than 10000 nM each time.

For the compound `COCCOc1ccc(-c2c(C#N)c(N)nc(SCc3cccc4[nH]ccc34)c2C#N)cc1` [Compound 67], the EC50 was 17.6 nM in test [1] and greater than 10000 nM at human A2B.

As to `COCCSc1nc(N)c(C#N)c(-c2ccc(OCCO)cc2)c1C#N` [Compound 151], the results for the half-maximal effective concentration (EC50) (in test [1]; on human A2B) were 61 nM and 28 nM, respectively.

Consider `COCCOc1ccc(-c2c(C#N)c(SCc3cncnc3)nc(N3CC(F)C3)c2C#N)cc1` [Compound 249], for which the EC50 (in test [1]; on human A2B) was greater than 10000 nM in each case.

Consider `N#Cc1c(N)nc(SCc2ccccc2)c(C#N)c1-c1ccc(OCCO)cc1` [Compound 150], for which the 50% effective concentration (EC50) stood at 12 nM in test [1] and 4.2 nM on human A2B.

With `COCCOc1ccc(-c2c(C#N)c(SCC3COC3)nc(N3CCC3)c2C#N)cc1` [Compound 62], the concentration for a half-maximal effect (EC50) in test [1] is 350 nM; at human A2B, no less than 10000 nM.

For `N#Cc1c(N)nc(SCc2cccc3occc23)c(C#N)c1-c1ccc(OCCO)cc1` [Compound 7], the EC50 was greater than 10000 nM in test [1] and 150 nM on human A2B.

On to `N#Cc1c(N)nc(SCc2cccnc2)c(C#N)c1-c1ccc(OCCO)cc1` [Compound 183], for which the concentration giving a half-maximal response (EC50) in test [1] is 2 nM; on human A2B it was 0.1 nM.

Regarding `COCCOc1ccc(-c2c(C#N)c(SCC3COC3)nc(N3CC(F)(F)C3)c2C#N)cc1` [Compound 269], the EC50 in test [1] is 615 nM; at human A2B, greater than 10000 nM.

With `N#Cc1c(SCC2COC2)nc(N2CC(O)C2)c(C#N)c1-c1ccc(OCCO)cc1` [Compound 274], the EC50 was 75.2 nM in test [1] and greater than 10000 nM on human A2B.

For `COCCOc1ccc(-c2c(C#N)c(N)nc(SCCNC(C)=O)c2C#N)cc1` [Compound 120], the results for the EC50 (in test [1]; at human A2B) were 1000 nM and greater than 10000 nM, respectively.

In the case of `N#Cc1c(SCc2cccnc2)nc(N2CCCC2)c(C#N)c1-c1ccc(OCCO)cc1` [Compound 114], the EC50 in test [1] turned out to be 7.6 nM; at human A2B it was 18 nM.

With `COCCOc1ccc(-c2c(C#N)c(N)nc(SCCOC)c2C#N)cc1` [Compound 147], the results for the EC50 (in test [1]; at human A2B) were 55 nM and 8560 nM, respectively.

As to `CN(C)c1nc(SCC2COC2)c(C#N)c(-c2ccc(OC3COC3)cc2)c1C#N` [Compound 222], the concentration giving a half-maximal response (EC50) in test [1] is 32 nM; on human A2B, greater than 10000 nM.

Regarding `COCCOc1ccc(-c2c(C#N)c(N)nc(SCc3cccc(OC)c3)c2C#N)cc1` [Compound 37], the EC50 in test [1] was 139 nM; on human A2B, greater than 10000 nM.

Take `N#Cc1c(SCC2COC2)nc(N2CC(F)(F)C2)c(C#N)c1-c1ccc(OCCO)cc1` [Compound 273]: the concentration giving a half-maximal response (EC50) in test [1] was 295 nM; on human A2B it was greater than 10000 nM.

Regarding `CC(=O)NCCSc1nc(N)c(C#N)c(-c2ccc(OCCO)cc2)c1C#N` [Compound 119], the EC50 in test [1] was determined as 161 nM; on human A2B it was 925 nM.

On to `N#Cc1c(N)nc(SC[C@H]2CCOC2)c(C#N)c1-c1ccc(OC2COC2)cc1` [Compound 225], for which the EC50 in test [1] is 0.75 nM; at human A2B it was 118 nM.

Take `N#Cc1c(N)nc(SCc2cccnc2)c(C#N)c1-c1ccc(O[C@@H]2CCOC2)cc1` [Compound 236]: the EC50 came to 164 nM in test [1] and 49.3 nM at human A2B.

On to `N#Cc1c(N)nc(OCC2COC2)c(C#N)c1-c1ccc(OC2COC2)cc1` [Compound 312, 2-Amino-6-(oxetan-3-ylmethoxy)-4-(4-(oxetan-3-yloxy)phenyl)pyridine-3,5-dicarbonitrile], for which the EC50 is 204 nM in test [1] and greater than 10000 nM at human A2B.

As for `N#Cc1c(SCc2cccnc2)nc(C2CC2)c(C#N)c1-c1ccc(OCCO)cc1` [Compound 45, 2-Cyclopropyl-4-[4-(2-hydroxyethoxy)phenyl]-6-(3-pyridylmethylsulfanyl)-pyridine-3,5-dicarbonitrile], the figures for the EC50 (in test [1]; at human A2B) were 34.3 nM and 8.2 nM, respectively.

Consider `N#Cc1c(N)nc(SCCOC(F)F)c(C#N)c1-c1ccc(OCCO)cc1` [Compound 93], for which the values for the EC50 (in test [1]; at human A2B) were 109 nM and 64 nM, respectively.

As to `N#Cc1c(N)nc(SCc2cccc3[nH]ccc23)c(C#N)c1-c1ccc(OC2CCOC2)cc1` (stereo not shown) [Compound 221], the EC50 (in test [1]; on human A2B) was greater than 10000 nM each time.

With `CC(C)(O)COc1ccc(-c2c(C#N)c(SCc3cccnc3)nc(N3CCC3)c2C#N)cc1` [Compound 49], the figures for the concentration for a half-maximal effect (EC50) (in test [1]; on human A2B) were 311 nM and 65 nM, respectively.

For `N#Cc1c(N)nc(SCC2CCOC2)c(C#N)c1-c1ccc(OCCO)cc1` (stereo not shown) [Compound 28], the concentration for a half-maximal effect (EC50) in test [1] is 52.4 nM; on human A2B, greater than 10000 nM.

As to `COCCOc1ccc(-c2c(C#N)c(SCc3cccnc3)nc(N3CC(F)C3)c2C#N)cc1` [Compound 277], the EC50 in test [1] is 23.9 nM; on human A2B it was greater than 10000 nM.
